15 compounds from patent US11453671B2, “Pyrazolopyrimidine inhibitors of JAK kinases and uses thereof” (Genentech, Inc., priority 2020, dated 2022) can be followed below.

Like-named read-outs stand apart in the source and are kept apart here.

The target of data set [1] is T1, recombinant human JAK1 kinase domain protein (Residues 854-1154) (Homo sapiens, UniProt P23458).
T1 construct: human JAK1 kinase domain protein (Residues 854-1154); purchased Proteros Biostructures GmbH (Martinsried, Germany); host or cells: insect cells
T1 sequence (P23458 854-1154): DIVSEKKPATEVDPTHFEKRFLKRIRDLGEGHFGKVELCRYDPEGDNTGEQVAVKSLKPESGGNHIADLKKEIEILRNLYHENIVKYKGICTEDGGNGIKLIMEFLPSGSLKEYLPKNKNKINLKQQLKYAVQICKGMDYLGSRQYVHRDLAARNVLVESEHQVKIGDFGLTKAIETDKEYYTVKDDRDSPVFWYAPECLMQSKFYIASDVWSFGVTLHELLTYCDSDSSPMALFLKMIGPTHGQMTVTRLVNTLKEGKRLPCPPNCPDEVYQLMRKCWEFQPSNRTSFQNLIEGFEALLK
Nature of the data set: JAK1 biochemical assay (microfluidic mobility shift, peptide phosphorylation). The conditions noted are these: 25 μM ATP, 1 nM total JAK1; read-out: Enzyme JAK1 Ki. An excerpt: JAK1 and JAK2 Biochemical Assays

Data set [2] in a line: Mouse lung tissue binding (equilibrium dialysis, RED). It is filed as in vitro ADME. The conditions noted are these: mouse lung tissue binding, % bound (Table 3). As for the experimental part: Mouse lung tissue binding. A high bound fraction or percentage of JAK1/JAK2 inhibitors to lung tissue may be undesirable since it can reduce the amount of free drug available to inhibit JAK1 or JAK2.
(a) Tissue binding experiments were performed in triplicate (n=3) using a Single-Use RED Plate by following the standard protocol. Initially, individual drugs were spiked to tissue homogenates (pH 7.4) to achieve a final concentration of 1 μM, and then 300 μL of drug-tissue homogenate mixtures were transferred to the donor wells of the RED plate which was pre-loaded with 500 μL phosphate buffer saline (133 mM) on the receiver wells. The RED plate was sealed with a gas permeable membrane and placed in a shaking incubator (450 rpm, VWR Symphony™) for 6 hr at 37° C. with 5% CO2. At the end of incubation, aliquots of 30 μL samples were taken out of the RED device and matrix equalized with an equal volume of tissue homogenates or buffer, and resulting samples were then immediately quenched with ice cold acetonitrile (sample:acetonitrile 1:4) containing either propranolol or labetalol as an internal standard. After shaking for 15 min at 500 rpm on a Thermo Scientific Compact Digital MicroPlate Shaker, all samples were then subjected to centrifugation at 3700 rpm for 15 min (Beckman Coulter Allegra X 12R) to remove plasma protein. Subsequently, supernatants were collected and then diluted with an equal volume of water prior to LC-MS/MS analysis.
(b) In an alternate procedure, the extent of lung tissue binding of test compound to mouse lung homogenate may also be determined by equilibrium dialysis using Pierce RED (rapid equilibrium dialysis) devices (Fisher Scientific 89811 & 89809). A 10 mM solution of compound in DMSO was prepared and diluted to 1 mM with DMSO. An aliquot of this 1 mM (4 μL) was added into lung homogenate (dilution factor of 1:9, lung tissue:potassium phosphate buffer (0.05 M, pH 7.4)) to give a final compound incubation concentration of 5 μM with solvent accounting for 0.5% (v/v) of the final incubation volume.
For each assay, the percentage lung tissue bound was determined in triplicate. Lung homogenate (200 μL) was loaded into one side of a RED device insert, in triplicate, and 350 μL of potassium phosphate buffer was loaded into the other side. The RED devices were sealed and incubated for 4 hours at ca. 37° C. on an orbital shaker (˜150 rpm).
Following incubation, an aliquot of lung homogenate (8 μL) and an aliquot of dialysate (72 μL) were matrix matched (lung homogenate with 72 μL phosphate buffer, dialysate with 8 μL lung homogenate) ahead of analysis. Protein was precipitated from the samples with the addition of 160 μL of acetonitrile containing internal standard. The same matrix matching and protein precipitation procedure was performed on lung homogenate aliquots sampled at the start of the experiment (t=0 min samples), for the assessment of the mass balance. The quenched samples were centrifuged (4000 rpm, 30 min, 4° C.) and the resultant supernatant diluted with water (3:1 (v/v), supernatant: water) and the samples analysed for parent compound by liquid chromatography mass spectrometry assay.
The unbound fraction (fu) in lung homogenate was determined from the ratio of the dialysate to homogenate peak area, corrected to take into account the lung homogenate dilution (D) to enable an estimate of whole lung tissue binding using the following equations: Undiluted fu=(1/D)/[((1/Apparent fu)−1)+(1/D)] Corrected fraction bound (%)=(1-undiluted fu)*100
(In general: In equilibrium dialysis free small molecules cross a membrane that holds back macromolecules.)

The nature of data set [3]: Cell cytotoxicity assay A549 (CellTiter-Glo, 72 hours). Type of data set: cell-based. To be noted: human, A549 cells, read-out: Cytotox A549 EC50. As for the experimental part: A549 (ATCC® CCL-185™), Jurkat clone E6-1 (ATCC® TIB-152™) and HEK-293T (ATCC® CRL-1573™) cells maintained at a sub-confluent density in T175 flasks were used. Cells in exponential growth phase were plated (450 cells in 45 μL of medium) in Greiner 384-well black/clear tissue culture treated plates (Greiner Catalog No. 781091). After dispensing cells, plates were allowed to equilibrate at room temperature for 30 minutes, after which time the cell plates were placed overnight in a 37° C. CO2 and humidity-controlled incubator. The following day, cells were treated with test agent diluted in 100% DMSO (0.5% final DMSO concentration on cells) with a 10-point titration and a top concentration of 50 μM. Cells and compounds were then incubated for 72 hours in a 37° C. CO2 and humidity-controlled incubator, after which time cell viability was measured by adding CellTiter-Glo® (Promega G7572) reagent to all wells. Plates were incubated at room temperature for 20 minutes and then the well luminescence was read on an EnVision plate reader (Perkin Elmer Life Sciences).
(In general: In ATP-based viability assays light output follows the ATP content of the culture.)

The mark [4] stands for this setting: Table 3, 72 hours, top concentration of 50 μM.

As for `Cn1cc(NC(=O)c2cnn3cccnc23)c(-c2cc(S(=O)(=O)C3CCCNC3)ccc2OC(F)F)n1` (single isomer, unassigned) [Example 37, N-[3-[2-(difluoromethoxy)-5-(3-piperidylsulfonyl)phenyl]-1-methyl-pyrazol-4-yl]pyrazolo[1,5-a]pyrimidine-3-carboxamide], the Ki in data set [1] amounted to 0.69 nM. Further, in data set [2], the “Mouse LTB %” value is given as 90.1%. Besides, in data set [3] (setting [4]), the EC50 at 72 h is at least 50000 nM.

In the case of `CN(C)CCn1cc(S(=O)(=O)c2ccc(OC(F)F)c(-c3nn(C)cc3NC(=O)c3cnn4cccnc34)c2)cn1` [Example 49, N-[3-[2-(difluoromethoxy)-5-[1-[2-(dimethylamino)ethyl]pyrazol-4-yl]sulfonyl-phenyl]-1-methyl-pyrazol-4-yl]pyrazolo[1,5-a]pyrimidine-3-carboxamide], the Ki in data set [1] is 0.5 nM. In addition, the “Mouse LTB %” value in data set [2] turned out to be 84.4%. Also, in data set [3] (setting [4]), the 50% effective concentration (EC50) at 72 h came out at 33000 nM.

For the compound `Cn1cc(NC(=O)c2cnn3cccnc23)c(-c2cc(S(=O)(=O)c3ccn(C)c(=O)c3)ccc2OC(F)F)n1` [Example 44, N-[3-[2-(difluoromethoxy)-5-[(1-methyl-2-oxo-4-pyridyl)sulfonyl]phenyl]-1-methyl-pyrazol-4-yl]pyrazolo[1,5-a]pyrimidine-3-carboxamide], the Ki in data set [1] was 0.52 nM. Moreover, the “Mouse LTB %” value in data set [2] amounted to 86.5%. The half-maximal effective concentration (EC50) at 72 h in data set [3] (setting [4]) is 24000 nM.

`Cn1cc(NC(=O)c2cnn3cccnc23)c(-c2cc(S(=O)(=O)C3CCC3)ccc2OC(F)F)n1` [Example 2, N-[3-[5-cyclobutylsulfonyl-2-(difluoromethoxy)phenyl]-1-methyl-pyrazol-4-yl]pyrazolo[1,5-a]pyrimidine-3-carboxamide]: in data set [1], the Ki came out at 0.5 nM. For the same compound, in data set [2], the “Mouse LTB %” value turned out to be 88.1%. In addition, the EC50 at 72 h in data set [3] (setting [4]) came out at 25500 nM.

On to `Cn1cc(NC(=O)c2cnn3cccnc23)c(-c2cc(S(=O)(=O)CCCO)ccc2OC(F)F)n1` [Example 63, N-[3-[2-(difluoromethoxy)-5-(3-hydroxypropylsulfonyl)phenyl]-1-methyl-pyrazol-4-yl]pyrazolo[1,5-a]pyrimidine-3-carboxamide], for which the Ki in data set [1] was determined as 0.58 nM. Also, in data set [2], the “Mouse LTB %” value is recorded as 80.5%. The EC50 at 72 h in data set [3] (setting [4]) was at least 50000 nM.

`Cn1cc(NC(=O)c2cnn3cccnc23)c(-c2cc(S(=O)(=O)C3CC3)ccc2OC(F)F)n1` [Example 22, N-[3-[5-cyclopropylsulfonyl-2-(difluoromethoxy)phenyl]-1-methyl-pyrazol-4-yl]pyrazolo[1,5-a]pyrimidine-3-carboxamide]: in data set [1], the Ki turned out to be 0.46 nM. The “Mouse LTB %” value in data set [2] came to 88.7%. Further, the EC50 at 72 h in data set [3] (setting [4]) was at least 50000 nM.

On to `CN(C)S(=O)(=O)c1ccc(OC(F)F)c(-c2nn(C)cc2NC(=O)c2cnn3cccnc23)c1` [Example 30, N-[3-[2-(difluoromethoxy)-5-(dimethylsulfamoyl)phenyl]-1-methyl-pyrazol-4-yl]pyrazolo[1,5-a]pyrimidine-3-carboxamide], for which the inhibitory constant (Ki) in data set [1] was determined as 0.22 nM. The “Mouse LTB %” value in data set [2] is on record as 83.1%. Also, in data set [3] (setting [4]), the EC50 at 72 h was found to be 6100 nM.

With `CNS(=O)(=O)c1ccc(OC(F)F)c(-c2nn(C)cc2NC(=O)c2cnn3cccnc23)c1` [Example 26, N-[3-[2-(difluoromethoxy)-5-(methylsulfamoyl)phenyl]-1-methyl-pyrazol-4-yl]pyrazolo[1,5-a]pyrimidine-3-carboxamide], the Ki in data set [1] amounted to 0.16 nM. In data set [2], the “Mouse LTB %” value is 86.9%. Further, the EC50 at 72 h in data set [3] (setting [4]) was 11000 nM.

Turning to `Cn1cc(NC(=O)c2cnn3cccnc23)c(-c2cc(S(=O)(=O)c3ccccc3)ccc2OC(F)F)n1` [Example 40, N-[3-[5-(benzenesulfonyl)-2-(difluoromethoxy)phenyl]-1-methyl-pyrazol-4-yl]pyrazolo[1,5-a]pyrimidine-3-carboxamide], the Ki in data set [1] was 0.21 nM. For the same compound, the “Mouse LTB %” value in data set [2] is listed as 95.6%. In addition, the EC50 at 72 h in data set [3] (setting [4]) is at least 50000 nM.

For `Cn1cc(NC(=O)c2cnn3cccnc23)c(-c2cc(S(=O)(=O)N3CCC3)ccc2OC(F)F)n1` [Example 21, N-[3-[5-(azetidin-1-ylsulfonyl)-2-(difluoromethoxy)phenyl]-1-methyl-pyrazol-4-yl]pyrazolo[1,5-a]pyrimidine-3-carboxamide], in data set [1], the Ki was found to be 0.22 nM. For the same compound, the “Mouse LTB %” value in data set [2] is listed as 83%. For the same compound, the EC50 at 72 h in data set [3] (setting [4]) came to 7500 nM.

Take `CC(CO)S(=O)(=O)c1ccc(OC(F)F)c(-c2nn(C)cc2NC(=O)c2cnn3cccnc23)c1` (single isomer, unassigned) [Example 23, N-[3-[2-(difluoromethoxy)-5-(2-hydroxy-1-methyl-ethyl)sulfonyl-phenyl]-1-methyl-pyrazol-4-yl]pyrazolo[1,5-a]pyrimidine-3-carboxamide]: the Ki in data set [1] turned out to be 0.26 nM. Also, the “Mouse LTB %” value in data set [2] amounted to 82.1%. In addition, in data set [3] (setting [4]), the EC50 at 72 h came to 28000 nM.

With `C[C@H](O)CS(=O)(=O)c1ccc(OC(F)F)c(-c2nn(C)cc2NC(=O)c2cnn3cccnc23)c1` (stereo in doubt) [Example 15, N-[3-[2-(difluoromethoxy)-5-[rac-(2S)-2-hydroxypropyl]sulfonyl-phenyl]-1-methyl-pyrazol-4-yl]pyrazolo[1,5-a]pyrimidine-3-carboxamide], in data set [1], the Ki is 0.43 nM. Besides, in data set [2], the “Mouse LTB %” value was found to be 85.7%. In data set [3] (setting [4]), the EC50 at 72 h was found to be 25000 nM.

Take `Cn1cc(NC(=O)c2cnn3cccnc23)c(-c2cc(S(C)(=O)=O)ccc2OC(F)F)n1` [Example 17, N-[3-[2-(difluoromethoxy)-5-methylsulfonyl-phenyl]-1-methyl-pyrazol-4-yl]pyrazolo[1,5-a]pyrimidine-3-carboxamide]: in data set [1], the inhibition constant Ki amounted to 0.22 nM. Further, the “Mouse LTB %” value in data set [2] is 85.8%. Further, the EC50 at 72 h came to 8700 nM in data set [3] (setting [4]) and 8700 nM in data set [3] (Table 4, methyl-desmethyl analog pairs).

For `CC(CO)S(=O)(=O)c1ccc(OC(F)F)c(-c2nn(C)cc2NC(=O)c2cnn3cccnc23)c1` (single isomer, unassigned) [Example 24, N-[3-[2-(difluoromethoxy)-5-(2-hydroxy-1-methyl-ethyl)sulfonyl-phenyl]-1-methyl-pyrazol-4-yl]pyrazolo[1,5-a]pyrimidine-3-carboxamide], the Ki in data set [1] is 0.46 nM. The “Mouse LTB %” value in data set [2] was 81.7%.

Take `C[C@H](Cn1cc(S(=O)(=O)c2ccc(OC(F)F)c(-c3nn(C)cc3NC(=O)c3cnn4cccnc34)c2)cn1)N(C)C` [Example 59, N-[3-[2-(difluoromethoxy)-5-[1-[(2R)-2-(dimethylamino)propyl]pyrazol-4-yl]sulfonyl-phenyl]-1-methyl-pyrazol-4-yl]pyrazolo[1,5-a]pyrimidine-3-carboxamide]: the Ki in data set [1] was 0.53 nM. For the same compound, the EC50 at 72 h in data set [3] (setting [4]) was 43000 nM.

Usually Ki stands for the equilibrium dissociation constant of an inhibitor or competing ligand from its target. In general, EC50 refers to the midpoint of the concentration-response curve.
